Calls of active or inactive are those of the source. Cut-off read from the data, not from the text of the source, for most assays here: actives have a measured IC50 and inactives only a lower limit.
Key:
[1] = Shn3 3'UTR reporter inhibitors, dose response, cell-based, Clone20 osteoblasts, firefly luciferase, cherry-picked (AID 624132); assay type: functional;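 note: firefly luciferase luminescence from reporter carrying the Shn3 3'UTR in osteoblasts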
HEK293 [2] = experiment: NOD1 signaling inhibitors, primary screen, cell-based, luminescence, uHTS (AID 1578); assay type: functional; conditions: Homo sapiens
HEK293 [3] = experiment: cells; assay type: functional, cell-based; conditions: Homo sapiens
HEK293 [4] = experiment: NOD2 signaling inhibitors in MDP-stimulated cells, cell-based, uHTS, luminescence (AID 2001); assay type: functional; conditions: Homo sapiens
[5] = target: Nucleotide-binding oligomerization domain-containing protein 2 (Homo sapiens, UniProt Q9HC29); experiment: NOD2 signaling inhibitors, cell-based, luminescence, uHTS, HEK293 (AID 1566); assay type: functional
HEK293 [6] = experiment: cells; conditions: Homo sapiens
[7] = control 3'UTR Renilla luciferase suppression, dose response, counter-screen for Shn3 inhibitor project, cell-based, Clone20-Shn3RL, cherry-picked (AID 624133); assay type: functional
[8] = HepG2 cell cytotoxicity, dose response, cytotoxicity control for Shn3 inhibitor project, CellTiter-Glo, cherry-picked (AID 624134); assay type: functional, cell-based
HEK293 [9] = experiment: cells; assay type: functional, cell-based; conditions: Homo sapiens; remark: listed apart in the source
[10] = target: Nucleotide-binding oligomerization domain-containing protein 1 (Homo sapiens, UniProt Q9Y239); experiment: NOD1 signaling inhibitors, SAR follow-up, revised (AID 2333); assay type: functional
Tumor necrosis factor = Tumor necrosis factor (Homo sapiens, UniProt P01375); experiment: TNFa-triggered NF-kB activation inhibitors, SAR follow-up, cell-based, revised (AID 2337); assay type: functional
[11] = target: T1, Microphthalmia-associated transcription factor (Homo sapiens, UniProt O75030); experiment: TRPM1 promoter luciferase signal decrease, dose response, MITF inhibitor project, cell-based, SK-MEL-5, cherry-picked, set 3 (AID 493073); assay type: functional
T1 sequence (O75030 whole entry): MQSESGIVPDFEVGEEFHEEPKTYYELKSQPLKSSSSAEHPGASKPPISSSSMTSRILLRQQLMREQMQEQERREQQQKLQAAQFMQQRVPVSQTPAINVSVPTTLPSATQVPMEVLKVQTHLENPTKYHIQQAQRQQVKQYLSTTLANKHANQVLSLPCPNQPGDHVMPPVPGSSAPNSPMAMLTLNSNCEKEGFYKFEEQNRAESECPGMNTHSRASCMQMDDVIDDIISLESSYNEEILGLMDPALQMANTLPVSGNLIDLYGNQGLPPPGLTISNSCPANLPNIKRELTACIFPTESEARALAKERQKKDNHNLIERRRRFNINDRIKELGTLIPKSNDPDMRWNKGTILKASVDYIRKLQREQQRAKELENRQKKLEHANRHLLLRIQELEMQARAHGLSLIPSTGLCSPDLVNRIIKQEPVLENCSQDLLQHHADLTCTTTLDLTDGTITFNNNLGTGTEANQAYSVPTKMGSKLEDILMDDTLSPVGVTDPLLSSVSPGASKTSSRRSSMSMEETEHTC

HEK293 [12] = experiment: cells; assay type: functional, cell-based; conditions: Homo sapiens; remark: listed apart in the source
SUMO E1/E2 = SUMO E1/E2 (Homo sapiens, UniProt P63279+Q9UBE0+Q9UBT2); experiment: SAR analysis of SUMOylation using HTRF in an in-Vitro dose response assay. [Related pubchem assays (depositor defined):AID2006, AID2011, AID2018, AID2069, AID2658]; assay type: functional
SUMO-activating enzyme [13] = target: T2, SUMO-activating enzyme (Homo sapiens, UniProt Q9UBT2); experiment: SUMOylation inhibitor hit validation, confirmation, SUMOylation inhibitor project, biochemical, AlphaScreen (AID 2018); assay type: functional
SUMO-activating enzyme [14] = target: T2, SUMO-activating enzyme; experiment: inhibitors of in vitro SUMOylation cascade, primary screen, biochemical, HTRF, uHTS (AID 2006); assay type: protein-complex assay
[15] = target: T3, Carboxy-terminal domain RNA polymerase II polypeptide A small phosphatase 1 (Homo sapiens, UniProt Q9GZU7); experiment: inhibitors of CTDSP1, concentration-response testing, biochemical assay, absorbance-based, actives from ultra-high-throughput screening (AID 540297); assay type: functional
T3 sequence (Q9GZU7 whole entry): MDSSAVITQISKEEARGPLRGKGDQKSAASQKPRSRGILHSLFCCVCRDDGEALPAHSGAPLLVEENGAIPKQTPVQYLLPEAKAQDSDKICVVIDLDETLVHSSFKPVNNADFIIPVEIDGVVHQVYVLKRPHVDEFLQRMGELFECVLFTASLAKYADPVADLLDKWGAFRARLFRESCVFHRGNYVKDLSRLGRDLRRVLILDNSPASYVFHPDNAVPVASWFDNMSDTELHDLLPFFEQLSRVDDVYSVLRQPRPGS

T2 sequence (Q9UBE0 whole entry): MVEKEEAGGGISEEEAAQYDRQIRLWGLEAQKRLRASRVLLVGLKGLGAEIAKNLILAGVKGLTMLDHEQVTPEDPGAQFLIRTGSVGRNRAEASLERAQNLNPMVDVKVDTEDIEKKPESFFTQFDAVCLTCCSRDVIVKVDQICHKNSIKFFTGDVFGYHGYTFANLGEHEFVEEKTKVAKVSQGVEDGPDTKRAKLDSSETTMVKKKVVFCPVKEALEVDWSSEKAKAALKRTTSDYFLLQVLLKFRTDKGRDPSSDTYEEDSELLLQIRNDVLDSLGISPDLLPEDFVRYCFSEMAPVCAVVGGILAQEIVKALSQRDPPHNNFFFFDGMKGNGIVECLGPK
T2 sequence (Q9UBT2 whole entry): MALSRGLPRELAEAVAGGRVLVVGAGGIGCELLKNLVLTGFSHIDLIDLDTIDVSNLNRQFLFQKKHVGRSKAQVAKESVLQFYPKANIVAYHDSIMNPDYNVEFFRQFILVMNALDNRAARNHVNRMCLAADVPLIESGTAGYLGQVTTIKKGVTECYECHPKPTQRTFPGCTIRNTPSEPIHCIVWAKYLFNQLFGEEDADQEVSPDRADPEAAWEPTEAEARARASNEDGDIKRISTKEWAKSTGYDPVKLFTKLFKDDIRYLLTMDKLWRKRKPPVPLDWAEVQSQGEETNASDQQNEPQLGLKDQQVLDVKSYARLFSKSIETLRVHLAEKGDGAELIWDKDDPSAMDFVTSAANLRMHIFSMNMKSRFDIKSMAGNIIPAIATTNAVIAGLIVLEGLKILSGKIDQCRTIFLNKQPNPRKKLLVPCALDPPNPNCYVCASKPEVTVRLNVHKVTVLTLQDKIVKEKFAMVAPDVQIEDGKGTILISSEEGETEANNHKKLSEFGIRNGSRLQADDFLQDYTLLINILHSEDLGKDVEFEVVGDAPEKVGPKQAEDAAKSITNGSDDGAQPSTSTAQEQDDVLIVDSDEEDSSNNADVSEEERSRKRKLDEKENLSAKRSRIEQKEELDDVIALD
Chain of SUMO E1/E2 (Q9UBE0 whole entry): as the sequence (Q9UBE0 whole entry) above
Chain of SUMO E1/E2 (Q9UBT2 whole entry): as the sequence (Q9UBT2 whole entry) above
Chain of SUMO E1/E2 (P63279 whole entry): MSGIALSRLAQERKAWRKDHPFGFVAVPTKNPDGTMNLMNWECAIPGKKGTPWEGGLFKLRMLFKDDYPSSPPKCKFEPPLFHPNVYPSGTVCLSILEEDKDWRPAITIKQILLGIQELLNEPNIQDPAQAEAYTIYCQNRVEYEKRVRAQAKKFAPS
Chain of Nucleotide-binding oligomerization domain-containing protein 2 (Q9HC29 whole entry, the tested form may be a part): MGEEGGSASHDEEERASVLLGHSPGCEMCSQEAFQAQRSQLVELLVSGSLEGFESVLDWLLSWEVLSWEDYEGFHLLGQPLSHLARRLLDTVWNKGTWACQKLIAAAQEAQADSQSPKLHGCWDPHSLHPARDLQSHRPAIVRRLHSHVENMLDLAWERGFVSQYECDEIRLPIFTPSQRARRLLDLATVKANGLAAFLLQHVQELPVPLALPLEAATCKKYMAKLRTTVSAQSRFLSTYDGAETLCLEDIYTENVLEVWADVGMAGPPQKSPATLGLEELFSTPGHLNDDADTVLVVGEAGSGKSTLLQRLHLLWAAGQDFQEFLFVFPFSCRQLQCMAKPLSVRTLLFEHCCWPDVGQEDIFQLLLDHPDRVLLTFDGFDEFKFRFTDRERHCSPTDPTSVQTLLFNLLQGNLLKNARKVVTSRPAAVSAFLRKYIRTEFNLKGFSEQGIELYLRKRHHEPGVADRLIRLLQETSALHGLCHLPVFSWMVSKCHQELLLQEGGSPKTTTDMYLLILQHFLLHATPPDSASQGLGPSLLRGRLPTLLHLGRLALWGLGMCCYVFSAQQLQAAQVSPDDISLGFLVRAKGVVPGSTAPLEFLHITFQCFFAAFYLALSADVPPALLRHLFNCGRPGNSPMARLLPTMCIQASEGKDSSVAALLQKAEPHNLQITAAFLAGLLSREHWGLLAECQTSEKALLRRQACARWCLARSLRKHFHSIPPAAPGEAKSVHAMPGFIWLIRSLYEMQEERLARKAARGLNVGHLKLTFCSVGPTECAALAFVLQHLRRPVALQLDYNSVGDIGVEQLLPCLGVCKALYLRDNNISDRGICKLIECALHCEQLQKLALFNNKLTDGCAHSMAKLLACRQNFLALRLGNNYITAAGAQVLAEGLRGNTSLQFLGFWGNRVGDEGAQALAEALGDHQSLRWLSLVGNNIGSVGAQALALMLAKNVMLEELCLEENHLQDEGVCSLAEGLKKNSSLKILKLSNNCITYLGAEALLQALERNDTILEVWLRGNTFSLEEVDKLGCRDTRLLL
Chain of Nucleotide-binding oligomerization domain-containing protein 1 (Q9Y239 whole entry, the tested form may be a part): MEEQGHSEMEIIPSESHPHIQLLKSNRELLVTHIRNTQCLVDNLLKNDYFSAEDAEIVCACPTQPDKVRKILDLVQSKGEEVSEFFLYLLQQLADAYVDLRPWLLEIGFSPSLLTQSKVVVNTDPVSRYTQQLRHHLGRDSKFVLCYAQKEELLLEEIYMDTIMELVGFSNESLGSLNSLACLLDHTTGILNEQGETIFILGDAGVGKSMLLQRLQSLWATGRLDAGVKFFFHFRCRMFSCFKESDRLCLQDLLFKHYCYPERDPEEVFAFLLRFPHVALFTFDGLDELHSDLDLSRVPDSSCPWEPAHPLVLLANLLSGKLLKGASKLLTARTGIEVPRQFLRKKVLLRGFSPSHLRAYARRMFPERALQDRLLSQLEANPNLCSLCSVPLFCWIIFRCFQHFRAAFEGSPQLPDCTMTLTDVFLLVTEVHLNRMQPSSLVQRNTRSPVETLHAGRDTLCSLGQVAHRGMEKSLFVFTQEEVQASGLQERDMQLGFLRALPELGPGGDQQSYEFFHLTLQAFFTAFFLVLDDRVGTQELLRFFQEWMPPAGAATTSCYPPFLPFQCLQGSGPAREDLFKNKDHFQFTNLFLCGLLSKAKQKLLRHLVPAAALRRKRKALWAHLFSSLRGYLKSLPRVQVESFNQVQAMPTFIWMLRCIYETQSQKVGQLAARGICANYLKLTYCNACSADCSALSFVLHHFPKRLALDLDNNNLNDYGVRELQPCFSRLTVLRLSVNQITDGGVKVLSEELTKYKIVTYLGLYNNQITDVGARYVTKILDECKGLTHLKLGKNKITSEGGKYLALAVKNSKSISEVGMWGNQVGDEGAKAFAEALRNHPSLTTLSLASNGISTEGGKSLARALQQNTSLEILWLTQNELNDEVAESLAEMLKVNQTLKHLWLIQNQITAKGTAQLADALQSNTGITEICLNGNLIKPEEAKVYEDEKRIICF
Chain of Tumor necrosis factor (P01375 whole entry): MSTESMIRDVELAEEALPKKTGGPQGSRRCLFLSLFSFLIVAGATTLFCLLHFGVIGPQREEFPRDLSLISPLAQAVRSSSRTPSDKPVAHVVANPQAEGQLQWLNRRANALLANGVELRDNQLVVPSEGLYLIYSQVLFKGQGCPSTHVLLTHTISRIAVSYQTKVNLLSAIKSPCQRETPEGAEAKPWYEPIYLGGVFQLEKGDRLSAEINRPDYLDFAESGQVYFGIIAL

| IC50 (SUMO E1/E2) | IC50 (SUMO-activating enzyme [13]) | IC50 (SUMO-activating enzyme [14]) | IC50 [15] | Compound | AC50 [1] | EC50 (HEK293 [2]) | IC50 (HEK293 [3]) | IC50 (HEK293 [4]) | EC50 [5] | IC50 (HEK293 [6]) | AC50 [7] | AC50 [8] | IC50 (HEK293 [9]) | IC50 [10] | IC50 (Tumor necrosis factor) | AC50 [11] | IC50 (HEK293 [12]) |
| --- | --- | --- | --- | --- | --- | --- | --- | --- | --- | --- | --- | --- | --- | --- | --- | --- | --- |
|  |  |  |  | CCOC(=O)N1CCN(C(=O)c2ccc(Cn3c(=S)[nH]c4ccc(Br)cc4c3=O)cc2)CC1 | 1.25 µM (active) | 4.23 µM (active) | > 20 µM (inactive) | 6.26 µM (active) | 4.18 µM (active) | 18.7 µM (active) | 0.793 µM (active) | > 70 µM (inactive) | 9.03 µM (active) | 4.77 µM (active) | 4.69 µM (active) | 3.52 µM (active) | > 20 µM (inactive) |
| 94.4 µM (active) | 7.02 µM (active) | 20.4 µM (active) | 6.44 µM (active) | O=C(N=Nc1c(O)[nH]c2ccc([N+](=O)[O-])cc12)c1ccccc1Cl |  |  |  |  |  |  |  |  |  |  |  |  |  |
